Measurements: paper PMC9377007, “An Unexpected Deuterium-Induced Metabolic Switch in Doxophylline” (ACS Medicinal Chemistry Letters, 2022)

Columns and labels:
[1] = Comparative pharmacokinetic study, single-dose administration in mice; assay type: in vivo; details: for AUC(0-t) / Cmax at 24 h / clearance at 24 h / half-life at 24 h / CL/F at 24 h: male, CD1, mouse, plasma, single dose; for decrease of the area under the curve (AUC) versus doxophylline: oral administration
Protocol: (§1) A comparative pharmacokinetic study was then performed by evaluating the plasma concentration profiles of doxophylline and its deuterated analogues after intravenous and oral single-dose administration in mice and minipigs. […] Since the deuterium kinetic isotope effect is often affected by interspecies variability,[28] a PK study was also performed in minipigs. […] A total of 96 CD1 male mice, approximately 6 weeks old and with a body weight of approximately 30 g, were purchased from Envigo RMS srl, (San Pietro al Natisone, UD, Italy). Four males Göttingen minipigs approximately 4-5 months old and weighing 9-11 Kg were purchased from Ellegaard Göttingen Minipigs (Dalmose, Denmark). Protocol for drug administration and blood sampling. Mice. Blood samples were collected under light isoflurane anaesthesia from the sublingual vein at the following time points (n=3): pre-dose and 5, 15, 30 minutes, 1, 2, 4, 8 and 24 hours after i.v. dosing (20 mg/Kg, dose volume 5 mL/Kg) and pre-dose and 15, 30 minutes, 1, 2, 4, 8 and 24 hours after oral gavage dosing (80 mg/Kg, dose volume 5 mL/Kg). Each animal was sampled on each day at a maximum of two alternating time points. Samples were transferred into tubes containing K3EDTA as anticoagulant, centrifuged, and stored at -80 °C. Minipig. Blood samples were collected from the jugular vein at the following time points (n=4): pre-dose and 5, 15, 30 minutes, 1, 2, 4, 8 and 24 hours after i.v. dosing (5 mg/Kg, dose volume 1 mL/Kg) and pre-dose and 15, 30 minutes, 1, 2, 4, 8 and 24 hours after oral gavage dosing (20 mg/Kg, dose volume 4 mL/Kg). Samples were transferred into tubes containing K3EDTA as anticoagulant, centrifuged, and stored at -80 °C. Sample preparation for HPLC-MS analysis. A volume of 50 µL of caffeine solution (1 mg/L in water-methanol 1:1) were added to plasma sample aliquots (50 µL); after the addition of the precipitant solution (100 µL of 10% ice-cold trichloroacetic acid in water), samples were centrifuged at 13,000 rpm for ten minutes and the supernatant injected onto the HPLC system (see supporting information for chromatographic conditions). If the levels of analytes were over range, plasma samples were preventively diluted with blank plasma. Data analysis. Quantification of doxophylline and its deuterated analogues d4 and d7 as well as their main metabolites, 7- theophylline acetic acid (T-COOH), 7-hydroxyethyl theophylline (Eto) and theophylline, was performed by using the calibration curves obtained with the corresponding working standards of the analytes and using caffeine as internal standard. The pharmacokinetic parameters for doxophylline and its deuterated analogues were calculated by plotting the plasma concentration curves versus time obtained from the average values of three animals, using PK Solver 2.0.1 S7

[2] = Comparative pharmacokinetic study, single-dose administration in minipigs; assay type: in vivo; details: male, Göttingen, minipig, plasma
Protocol: as §1

SMILES | AUC(0-t) ([1]; intravenous, 20 mg/kg) [ng·h/mL] | Cmax at 24 h ([1]; intravenous, 20 mg/kg) [ng/mL] | clearance at 24 h ([1]; intravenous, 20 mg/kg) [mL/min/kg] | half-life at 24 h ([1]; intravenous, 20 mg/kg) [h] | AUC(0-t) ([1]; oral, 80 mg/kg) [ng·h/mL] | CL/F at 24 h ([1]; oral, 80 mg/kg) [mL/min/kg] | Cmax at 24 h ([1]; oral, 80 mg/kg) [ng/mL] | half-life at 24 h ([1]; oral, 80 mg/kg) [h] | AUC(0-t) ([2]; intravenous, 5 mg/kg) [ng·h/mL] | Cmax ([2]; intravenous, 5 mg/kg) [ng/mL] | clearance ([2]; intravenous, 5 mg/kg) [mL/min/kg] | half-life ([2]; intravenous, 5 mg/kg) [h] | AUC(0-t) ([2]; oral, 20 mg/kg) [ng·h/mL] | CL/F ([2]; oral, 20 mg/kg) [mL/min/kg] | Cmax ([2]; oral, 20 mg/kg) [ng/mL] | half-life ([2]; oral, 20 mg/kg) [h] | decrease of the area under the curve (AUC) versus doxophylline [1] [%]
Cn1c(=O)c2c(ncn2CC2OCCO2)n(C)c1=O [doxophylline] | 6730 | 15500 | 48.3 | 1.1 | 55900 | 23.3 | 18700 | 1.6 | 47700 | 7500 | 1.67 | 6.2 | 217000 | 1.17 | 14000 | 11 | 
[2H]C1([2H])OC([2H])(C([2H])([2H])n2cnc3c2c(=O)n(C)c(=O)n3C)OC1([2H])[2H] [d7-doxophylline] | 4920 | 10700 | 68.3 | 1 | 33600 | 40 | 19200 | 2.1 | 47000 | 8260 | 1.67 | 6.5 | 222000 | 1.17 | 13000 | 12.6 | 40
[2H]C1([2H])OC(Cn2cnc3c2c(=O)n(C)c(=O)n3C)OC1([2H])[2H] [d4-doxophylline] | 5410 | 12300 | 61.7 | 1.5 | 31400 | 41.7 | 16800 | 1.7 | 49200 | 7420 | 1.67 | 6.2 | 236000 | 1.17 | 15800 | 10.8 | 44
